Source: PubChem BioAssay (NCI)
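96-well plates; 48 h exposure; 5 concentrations. Endpoints by linear interpolation between flanking doses. Not reached: highest tested concentration assigned. GI50 marks 50% less growth. TGI denotes the concentration required for complete inhibition of growth.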

Tests used:
Experiment in all cases: growth of human tumour cells (NCI), 48 h
[1] = test system: A549 NSCLC
[2] = test system: HOP-92 NSCLC
[3] = test system: RXF 393 renal
[4] = test system: SF-539 CNS
[5] = test system: UO-31 renal
[6] = test system: CAKI-1 renal
[7] = test system: LOX IMVI melanoma
[8] = test system: NCI-H522 lung
[9] = test system: PC-3 prostate
[10] = test system: SK-MEL-5 melanoma

Structure (SMILES) | TGI [1] | TGI [2] | TGI [3] | TGI [4] | TGI [5] | GI50 [1] | GI50 [6] | TGI [6] | GI50 [7] | TGI [7] | GI50 [8] | TGI [8] | GI50 [9] | TGI [9] | GI50 [3] | GI50 [4] | GI50 [10] | TGI [10] | GI50 [5] | GI50 [2]
O=[N+]([O-])c1cnn(C2=CNc3ccccc3N=C2)c1 | > 100 µM | > 100 µM | > 100 µM | > 100 µM | > 100 µM | – | – | – | – | – | – | – | – | – | – | – | – | – | – | –
CCOc1cccc(/C=N/NC(=O)C(=O)Nc2cccc(C(F)(F)F)c2)c1O | > 100 µM | – | 55.1 µM | 11.2 µM | 18.5 µM | 2.04 µM | 0.528 µM | 6.49 µM | 1.44 µM | 22.2 µM | 2.29 µM | > 100 µM | 1.95 µM | > 100 µM | 4.07 µM | 2.18 µM | 1.87 µM | 19 µM | 0.63 µM | –
CCCOc1ccc2nc(NC(=O)OC)[nH]c2c1 | > 100 µM | > 100 µM | – | – | > 100 µM | 0.337 µM | 0.29 µM | > 100 µM | 0.778 µM | > 100 µM | 0.235 µM | 2.28 µM | 0.269 µM | > 100 µM | – | – | 0.0796 µM | 1.73 µM | 0.501 µM | 0.18 µM
Cc1cccc(-n2c(=S)[nH]c3c(sc(=O)n3-c3ccccc3C)c2=O)c1 | > 100 µM | > 100 µM | > 100 µM | > 100 µM | > 100 µM | – | – | > 100 µM | – | – | – | > 100 µM | – | – | – | – | – | > 100 µM | – | –
COc1ccc(-c2oc3c(OC)c(OC)c(OC)c(OC)c3c(=O)c2OC)cc1OC | > 100 µM | 0.0897 µM | – | > 100 µM | > 100 µM | – | – | > 100 µM | – | > 100 µM | – | 49.4 µM | – | > 100 µM | – | – | – | 66.3 µM | – | –
CCOC(=O)c1cc(/C=C/C(C)=C/C(=O)OC)oc1C | > 100 µM | > 100 µM | – | > 100 µM | > 100 µM | – | – | > 100 µM | – | > 100 µM | – | > 100 µM | – | – | – | – | – | – | – | –
NC(=S)NNc1c([N+](=O)[O-])cnn(-c2ccccc2)c1=O | 49.9 µM | 34.8 µM | 33.9 µM | 34 µM | 38 µM | – | – | 33.9 µM | – | 23.7 µM | – | 33.6 µM | – | – | – | – | – | 33.2 µM | – | –
CCC1=NC(CO)[C@H](c2ccccc2)O1 (stereo partly specified) | > 100 µM | > 100 µM | > 100 µM | > 100 µM | – | – | – | > 100 µM | – | > 100 µM | – | – | – | – | – | – | – | > 100 µM | – | –
CCCCN(CCCC)c1c([N+](=O)[O-])c(=O)nc2ccccn12 | > 100 µM | > 100 µM | – | > 100 µM | 94 µM | – | – | – | – | – | – | 36.4 µM | – | – | – | – | – | > 100 µM | – | –
C/C(=N\N(c1ccccc1)c1ccccc1)c1c(O)cc(C)oc1=O | > 100 µM | > 100 µM | – | > 100 µM | > 100 µM | – | – | > 100 µM | – | > 100 µM | – | > 100 µM | – | – | – | – | – | – | – | –
COC1OC(CO)C(O)C1N (stereo unspecified) | > 100 µM | > 100 µM | > 100 µM | > 100 µM | – | – | – | > 100 µM | – | > 100 µM | – | > 100 µM | – | – | – | – | – | > 100 µM | – | –
CCOP(=O)(OCC)OC(C#N)c1ccc(-c2ccccc2)cc1 (stereo unspecified) | 34.9 µM | 52.6 µM | – | 38.9 µM | > 100 µM | – | – | 47.6 µM | – | 29.1 µM | – | 28.5 µM | – | – | – | – | – | 31.8 µM | – | –
COc1ccc(/C=C\c2cc(OC)c(O[Si](C)(C)C(C)(C)C)c(OC)c2)cc1 | > 100 µM | > 100 µM | – | > 100 µM | > 100 µM | – | – | > 100 µM | – | – | – | > 100 µM | – | – | – | – | – | – | – | –
OCCNc1ncnc2c1ncn2Cc1cccc(COc2cccc(OCc3cccc(Cn4cnc5c(NCCO)ncnc54)c3)c2)c1 | 50.7 µM | 23.6 µM | – | 25.4 µM | 56.6 µM | 24.9 µM | 18.4 µM | 42.1 µM | 14.5 µM | 30.1 µM | 12.5 µM | 31.8 µM | 14.5 µM | 30.4 µM | – | 11.5 µM | 16.7 µM | 31 µM | 23.1 µM | 7.61 µM
CN(C)CC1CCC/C1=N\O (stereo unspecified) | – | > 100 µM | > 100 µM | > 100 µM | > 100 µM | – | – | > 100 µM | – | > 100 µM | – | > 100 µM | – | – | – | – | – | > 100 µM | – | –
CC[C@]1(O)C(=O)OCc2c1cc1n(c2=O)Cc2cc3c(N)cccc3nc2-1 | > 100 µM | > 100 µM | > 100 µM | > 100 µM | > 100 µM | – | – | > 100 µM | – | > 100 µM | – | > 100 µM | – | – | – | – | – | > 100 µM | – | –
CC1C(=O)OCC2=CCN3CCC(OC(=O)C(C)C1(C)O)C23 (stereo unspecified) | > 100 µM | > 100 µM | – | > 100 µM | > 100 µM | – | – | > 100 µM | – | > 100 µM | – | > 100 µM | – | > 100 µM | – | – | – | > 100 µM | – | –
NCCCCNc1ccc2c(=O)[nH][nH]c(=O)c2c1 | > 100 µM | > 100 µM | > 100 µM | > 100 µM | > 100 µM | – | – | > 100 µM | – | > 100 µM | – | > 100 µM | – | – | – | – | – | > 100 µM | – | –
CN1CC[C@]2(C)c3ccc(O)cc3CC3CCCC1C32C (stereo partly specified) | > 100 µM | > 100 µM | > 100 µM | > 100 µM | > 100 µM | – | – | > 100 µM | – | > 100 µM | – | > 100 µM | – | – | – | – | – | > 100 µM | – | –
Cc1cccc(C)c1NC(=O)C1C(=O)N(c2c(C)cccc2C)C(=O)/C1=N\NC(N)=S (stereo unspecified) | > 100 µM | > 100 µM | > 100 µM | > 100 µM | > 100 µM | – | – | – | – | – | – | > 100 µM | – | – | – | – | – | > 100 µM | – | –
C/C=C/C=C/C=C/C=C/C(=O)O | > 100 µM | – | > 100 µM | > 100 µM | > 100 µM | – | – | > 100 µM | – | > 100 µM | – | > 100 µM | – | – | – | – | – | > 100 µM | – | –
CCOC(=O)/C=C1\CCCC12OCCO2 | > 100 µM | – | > 100 µM | > 100 µM | > 100 µM | – | – | > 100 µM | – | – | – | 7.38 µM | – | – | – | – | – | > 100 µM | – | –
Nc1ccccc1C#C/C=C\C#Cc1ccccc1 | 77.7 µM | – | > 100 µM | 28.6 µM | 59.3 µM | 17.8 µM | 1.44 µM | 8.35 µM | 10.3 µM | 24.1 µM | 4.72 µM | 20.5 µM | 12.3 µM | 54.1 µM | 29.9 µM | 13 µM | 5 µM | 18.5 µM | 17.7 µM | –
